For 8 compounds, inhibition results are on record in publication PMC9927415, “Tyrosine Kinase Inhibitors Display Potent Activity against Cryptosporidium parvum” (Microbiology Spectrum, 2022).

Holding throughout (experiment): KINOMEscan competitive binding
The target of one test is T1, RAF1 (Homo sapiens, UniProt P04049).
T1 construct: purchased DiscoverX (KINOMEscan)
The conditions noted are these: n=1, read-out: Percent inhibition, RAF1.

A further test has as its target T2, STK33 (Homo sapiens, UniProt Q9BYT3).
T2 construct: purchased DiscoverX (KINOMEscan)
The conditions noted are these: n=1, read-out: Percent inhibition, STK33.

Another test addresses T3, SRC (Homo sapiens, UniProt P12931).
T3 construct: purchased DiscoverX (KINOMEscan)
To be noted: n=1, read-out: Percent inhibition, SRC.

The next test concerns the target T4, PAK6 (Homo sapiens, UniProt Q9NQU5).
T4 construct: purchased DiscoverX (KINOMEscan)
The conditions noted are these: n=1, read-out: Percent inhibition, PAK6.

The next test concerns the target T5, PIM1 (Homo sapiens, UniProt P11309).
T5 construct: purchased DiscoverX (KINOMEscan)
To be noted: n=1, read-out: Percent inhibition, PIM1.

The target of a further test is T6, TRKC (Homo sapiens, UniProt Q16288).
T6 construct: purchased DiscoverX (KINOMEscan)
The conditions noted are these: n=1, read-out: Percent inhibition, TRKC.

In another test the target is T7, SRPK1 (Homo sapiens, UniProt Q96SB4).
T7 construct: purchased DiscoverX (KINOMEscan)
To be noted: n=1, read-out: Percent inhibition, SRPK1.

The next test has as its target T8, PLK3 (Homo sapiens, UniProt Q9H4B4).
T8 construct: purchased DiscoverX (KINOMEscan)
To be noted: n=1, read-out: Percent inhibition, PLK3.

A further test concerns the target T9, PLK4 (Homo sapiens, UniProt O00444).
T9 construct: purchased DiscoverX (KINOMEscan)
T9 sequence (O00444 1-970): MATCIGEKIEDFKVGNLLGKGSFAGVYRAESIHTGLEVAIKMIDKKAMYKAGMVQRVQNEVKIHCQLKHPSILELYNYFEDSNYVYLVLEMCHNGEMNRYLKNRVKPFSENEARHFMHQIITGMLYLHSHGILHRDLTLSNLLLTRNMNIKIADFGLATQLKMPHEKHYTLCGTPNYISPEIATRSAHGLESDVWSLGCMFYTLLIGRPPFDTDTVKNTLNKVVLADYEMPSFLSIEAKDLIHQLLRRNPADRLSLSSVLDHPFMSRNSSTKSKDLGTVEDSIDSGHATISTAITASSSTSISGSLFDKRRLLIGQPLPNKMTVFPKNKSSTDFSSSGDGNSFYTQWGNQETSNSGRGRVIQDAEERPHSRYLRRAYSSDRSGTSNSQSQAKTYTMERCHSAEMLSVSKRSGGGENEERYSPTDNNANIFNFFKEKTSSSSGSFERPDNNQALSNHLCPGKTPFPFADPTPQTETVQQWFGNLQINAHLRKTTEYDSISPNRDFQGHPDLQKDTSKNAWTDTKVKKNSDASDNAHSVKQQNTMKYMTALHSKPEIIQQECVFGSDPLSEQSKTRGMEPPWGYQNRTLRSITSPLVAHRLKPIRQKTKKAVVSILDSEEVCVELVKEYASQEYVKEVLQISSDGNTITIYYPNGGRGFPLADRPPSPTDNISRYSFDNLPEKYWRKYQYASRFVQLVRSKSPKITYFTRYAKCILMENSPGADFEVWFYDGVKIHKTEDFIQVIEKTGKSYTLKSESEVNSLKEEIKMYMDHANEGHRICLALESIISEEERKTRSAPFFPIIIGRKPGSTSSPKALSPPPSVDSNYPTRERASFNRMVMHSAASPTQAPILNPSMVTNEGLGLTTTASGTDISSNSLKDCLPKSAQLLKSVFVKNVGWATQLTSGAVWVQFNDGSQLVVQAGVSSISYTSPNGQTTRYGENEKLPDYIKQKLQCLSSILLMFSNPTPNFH
The conditions noted are these: n=1, read-out: Percent inhibition, PLK4.

A further test concerns the target T10, TXK (Homo sapiens, UniProt P42681).
T10 construct: purchased DiscoverX (KINOMEscan)
T10 sequence (P42681 1-527): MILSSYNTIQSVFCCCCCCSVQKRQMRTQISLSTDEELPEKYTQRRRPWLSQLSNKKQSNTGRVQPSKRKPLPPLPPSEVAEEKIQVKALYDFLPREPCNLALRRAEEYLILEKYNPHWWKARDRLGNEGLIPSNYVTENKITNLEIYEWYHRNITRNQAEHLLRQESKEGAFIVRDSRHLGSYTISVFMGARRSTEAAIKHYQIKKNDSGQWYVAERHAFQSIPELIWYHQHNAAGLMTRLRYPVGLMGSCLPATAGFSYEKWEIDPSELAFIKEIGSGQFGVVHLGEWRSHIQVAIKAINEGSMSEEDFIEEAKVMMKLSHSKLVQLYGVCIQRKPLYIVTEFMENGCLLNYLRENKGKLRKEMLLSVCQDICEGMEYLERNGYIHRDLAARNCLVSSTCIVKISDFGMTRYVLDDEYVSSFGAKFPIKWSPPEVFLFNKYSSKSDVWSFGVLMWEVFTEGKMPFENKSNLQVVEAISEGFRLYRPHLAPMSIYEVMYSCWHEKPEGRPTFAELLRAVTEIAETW
To be noted: n=1, read-out: Percent inhibition, TXK.

The target of a further test is T11, ZAP70 (Homo sapiens, UniProt P43403).
T11 construct: purchased DiscoverX (KINOMEscan)
T11 sequence (P43403 1-619): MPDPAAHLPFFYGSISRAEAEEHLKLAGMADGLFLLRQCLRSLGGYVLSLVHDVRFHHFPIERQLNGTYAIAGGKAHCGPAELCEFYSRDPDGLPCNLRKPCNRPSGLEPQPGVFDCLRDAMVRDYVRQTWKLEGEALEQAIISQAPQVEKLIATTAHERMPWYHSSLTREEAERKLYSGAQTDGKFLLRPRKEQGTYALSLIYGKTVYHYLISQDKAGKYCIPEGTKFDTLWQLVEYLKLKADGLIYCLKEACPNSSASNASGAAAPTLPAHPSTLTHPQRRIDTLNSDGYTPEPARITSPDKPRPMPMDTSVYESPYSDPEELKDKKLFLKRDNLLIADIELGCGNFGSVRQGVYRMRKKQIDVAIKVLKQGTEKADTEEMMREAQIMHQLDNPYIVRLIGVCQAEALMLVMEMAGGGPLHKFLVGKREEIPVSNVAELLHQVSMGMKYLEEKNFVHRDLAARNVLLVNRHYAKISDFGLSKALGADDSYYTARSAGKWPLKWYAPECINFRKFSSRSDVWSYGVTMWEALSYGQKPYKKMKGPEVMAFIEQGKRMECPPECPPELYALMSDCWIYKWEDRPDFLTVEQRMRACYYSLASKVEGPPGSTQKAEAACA
To be noted: n=1, read-out: Percent inhibition, ZAP70.

Another test concerns the target T12, SLK (Homo sapiens, UniProt Q9H2G2).
T12 construct: purchased DiscoverX (KINOMEscan)
To be noted: n=1, read-out: Percent inhibition, SLK.

Another test concerns the target T13, TNK2 (Homo sapiens, UniProt Q07912).
T13 construct: purchased DiscoverX (KINOMEscan)
The conditions noted are these: n=1, read-out: Percent inhibition, TNK2.

As usually defined, the inhibition is the share of the control response that was lost under treatment. For `Cc1ccc(O)cc1Nc1ccnc(Nc2cccc(C(N)=O)c2)n1` [Compound 3], the inhibition at 10 µM at RAF1 stood at 74.3%; on STK33 it was 89.1%; at SRC it was 100%; on PAK6, 0%; on PIM1, 0%; on TRKC, 0%. The inhibition at 10 µM on SRPK1 was determined as 0%; on PLK3, 79%; on PLK4, 95.2%; on TXK, 100%; at ZAP70, 0%; on SLK, 83.5%. Moreover, at TNK2, the inhibition at 10 µM stood at 98.8%.

Consider `Clc1ccc(Nc2ncc(-c3ccccc3)s2)cc1` [Compound 10], for which the inhibition at 10 µM on RAF1, on STK33, on SRC, on PAK6, at PIM1 and at TRKC was 0% each time. Further, the inhibition at 10 µM at SRPK1, at PLK3, at PLK4, at TXK, at ZAP70 and at SLK was 0% each time. Moreover, the inhibition at 10 µM on TNK2 was 0%.

Consider `c1ccc(COc2cccc(-c3ccnc4[nH]ccc34)c2)cc1` [Compound 9], for which the inhibition at 10 µM on RAF1, on STK33, on SRC, at PAK6, on PIM1 and on TRKC was 0% in each case. Further, the inhibition at 10 µM at SRPK1 came to 71.2%; on PLK3, 0%; on PLK4 it was 0%; at TXK it was 0%; at ZAP70 it was 0%; at SLK, 0%. In addition, at TNK2, the inhibition at 10 µM amounted to 0%.

In the case of `Fc1cccc(COc2ccc(Nc3ncnc4c3CN(CCN3CCOCC3)CC4)cc2Cl)c1` [Compound 6], the inhibition at 10 µM at RAF1, on STK33, at SRC, on PAK6, on PIM1 and at TRKC was 0% throughout. Further, the inhibition at 10 µM on SRPK1, on PLK3, at PLK4, on TXK, on ZAP70 and on SLK was 0% each time. Also, at TNK2, the inhibition at 10 µM worked out at 0%.

On to `C[C@@H](Oc1cc(-c2cnc3ccccn23)sc1C(N)=O)c1ccccc1Cl` [Compound 8], for which the inhibition at 10 µM was determined as 0% at RAF1; 0% on STK33; 0% on SRC; 0% on PAK6; 76.4% at PIM1; 0% on TRKC. Further, the inhibition at 10 µM on SRPK1 was 96.1%; on PLK3, 95.6%; on PLK4, 76.4%; at TXK it was 0%; at ZAP70 it was 0%; at SLK, 100%. Also, on TNK2, the inhibition at 10 µM turned out to be 0%.

With `CN1CCN(c2ccc(Nc3nccc(-c4cnn5ncccc45)n3)cc2C#N)CC1` [Compound 1], the inhibition at 10 µM on RAF1 amounted to 0%; at STK33, 98.1%; on SRC, 99.2%; on PAK6, 92.5%; on PIM1, 99.8%; on TRKC it was 82.8%. Besides, the inhibition at 10 µM on SRPK1 is 95.5%; at PLK3, 0%; on PLK4 it was 99.7%; on TXK it was 0%; on ZAP70 it was 0%; at SLK, 98.1%. Besides, the inhibition at 10 µM at TNK2 was 73.2%.

`Cc1ccc(O)cc1N(C)c1ccnc(Nc2cccc(S(N)(=O)=O)c2)n1` [Compound 4]: the inhibition at 10 µM at RAF1 amounted to 94.2%; on STK33 it was 85.7%; at SRC it was 100%; on PAK6 it was 94.3%; at PIM1, 0%; on TRKC, 90%. The inhibition at 10 µM on SRPK1 was 0%; at PLK3, 0%; on PLK4, 99.4%; at TXK, 100%; on ZAP70, 0%; on SLK, 99.5%. Also, the inhibition at 10 µM at TNK2 was 99.8%.

On to `COc1ccc(Nc2nccc(-c3cnn4ncccc34)n2)cc1` [Compound 2], for which the inhibition at 10 µM at RAF1 is 0%; on STK33, 68.9%; on SRC it was 85%; on PAK6, 82%; on PIM1, 0%; on TRKC it was 0%. In addition, the inhibition at 10 µM came out at 90.6% on SRPK1; 0% on PLK3; 99% at PLK4; 0% at TXK; 0% at ZAP70; 77.9% on SLK. In addition, at TNK2, the inhibition at 10 µM came out at 78.1%.
